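Interpolation was linear, between the two tested concentrations surrounding the appropriate level; five concentrations were tested over 48 hours in 96-well plates. GI50: concentration for 50% inhibition of growth. TGI marks complete inhibition of growth.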
Assays:
Experiment in all cases: DTP human tumour cell line panel, 48 h
HS 578T breast = test system: HS 578T breast
RPMI-8226 leukemia = test system: RPMI-8226 leukemia
SR leukemia = test system: SR leukemia
SNB-75 CNS = test system: SNB-75 CNS
SF-295 CNS = test system: SF-295 CNS
HCT-116 colon = test system: HCT-116 colon
UACC-62 melanoma = test system: UACC-62 melanoma
SF-539 CNS = test system: SF-539 CNS
NCI-H460 lung = test system: NCI-H460 lung
NCI-H23 lung = test system: NCI-H23 lung
SN12C renal = test system: SN12C renal
U251 CNS = test system: U251 CNS
MOLT-4 leukemia = test system: MOLT-4 leukemia
LOX IMVI melanoma = test system: LOX IMVI melanoma
OVCAR-5 ovarian = test system: OVCAR-5 ovarian
PC-3 prostate = test system: PC-3 prostate
UACC-257 melanoma = test system: UACC-257 melanoma
CCRF-CEM leukemia = test system: CCRF-CEM leukemia
SF-268 CNS = test system: SF-268 CNS
RXF 393 renal = test system: RXF 393 renal
OVCAR-8 ovarian = test system: OVCAR-8 ovarian
MDA-MB-435 = test system: MDA-MB-435
SK-MEL-2 melanoma = test system: SK-MEL-2 melanoma
OVCAR-3 ovarian = test system: OVCAR-3 ovarian
KM12 colon = test system: KM12 colon
M14 melanoma = test system: M14 melanoma
HCC-2998 colon = test system: HCC-2998 colon
K-562 leukemia = test system: K-562 leukemia
A549 NSCLC = test system: A549 NSCLC
IGROV1 ovarian = test system: IGROV1 ovarian
TK-10 renal = test system: TK-10 renal
T-47D breast = test system: T-47D breast
SNB-19 CNS = test system: SNB-19 CNS
NCI-H522 lung = test system: NCI-H522 lung
A498 renal = test system: A498 renal
HL-60(TB) leukemia = test system: HL-60(TB) leukemia
HOP-92 NSCLC = test system: HOP-92 NSCLC
NCI-H226 lung = test system: NCI-H226 lung
ACHN renal = test system: ACHN renal
SK-OV-3 ovarian = test system: SK-OV-3 ovarian
HOP-62 NSCLC = test system: HOP-62 NSCLC
NCI/ADR-RES ovarian = test system: NCI/ADR-RES ovarian
UO-31 renal = test system: UO-31 renal
SW-620 colon = test system: SW-620 colon
MCF7 breast = test system: MCF7 breast
HCT-15 colon = test system: HCT-15 colon
EKVX NSCLC = test system: EKVX NSCLC
CAKI-1 renal = test system: CAKI-1 renal
SK-MEL-5 melanoma = test system: SK-MEL-5 melanoma
786-0 renal = test system: 786-0 renal
SK-MEL-28 melanoma = test system: SK-MEL-28 melanoma
MALME-3M melanoma = test system: MALME-3M melanoma
OVCAR-4 ovarian = test system: OVCAR-4 ovarian
BT-549 breast = test system: BT-549 breast
DU-145 prostate = test system: DU-145 prostate
HT29 colon = test system: HT29 colon
COLO 205 colon = test system: COLO 205 colon
MDA-MB-231 breast = test system: MDA-MB-231 breast

## Cc1cc(-c2ncc(-c3cccnc3)cc2/C=C/c2ccccc2)cnc1-c1cccnc1
HS 578T breast
  GI50: 3.39 µM
  TGI: > 100 µM
RPMI-8226 leukemia
  GI50: 2.53 µM
  TGI: 16.7 µM
SR leukemia
  GI50: 2.69 µM
  TGI: > 28.5 µM
SNB-75 CNS
  GI50: 5.23 µM
  TGI: > 63.4 µM
SF-295 CNS
  GI50: 5.62 µM
  TGI: 52.1 µM
HCT-116 colon
  GI50: 4.22 µM
  TGI: > 100 µM
UACC-62 melanoma
  GI50: 3.91 µM
  TGI: > 83.9 µM
SF-539 CNS
  GI50: 11.5 µM
  TGI: > 33.2 µM
NCI-H460 lung
  GI50: 2.28 µM
  TGI: 5.27 µM
NCI-H23 lung
  GI50: 4.59 µM
  TGI: > 100 µM
SN12C renal
  GI50: 3.59 µM
  TGI: > 100 µM
U251 CNS
  GI50: 4.54 µM
  TGI: > 100 µM
MOLT-4 leukemia
  GI50: 1.47 µM
  TGI: 5.99 µM
LOX IMVI melanoma
  GI50: 3.12 µM
  TGI: 19.7 µM
OVCAR-5 ovarian
  GI50: > 72.6 µM
  TGI: > 100 µM
PC-3 prostate
  GI50: 3.21 µM
  TGI: > 100 µM
UACC-257 melanoma
  GI50: 5.08 µM
  TGI: > 100 µM
CCRF-CEM leukemia
  GI50: 1.17 µM
  TGI: 7.76 µM
SF-268 CNS
  GI50: 5.81 µM
  TGI: > 100 µM
RXF 393 renal
  GI50: 4.13 µM
  TGI: 75.3 µM
OVCAR-8 ovarian
  GI50: 3.81 µM
  TGI: > 100 µM
MDA-MB-435
  TGI: > 100 µM
SK-MEL-2 melanoma
  GI50: 4.93 µM
  TGI: > 66.9 µM
OVCAR-3 ovarian
  GI50: 3.48 µM
  TGI: 37.7 µM
KM12 colon
  GI50: 3.3 µM
  TGI: > 100 µM
M14 melanoma
  GI50: 4.24 µM
  TGI: > 100 µM
HCC-2998 colon
  GI50: > 25.4 µM
  TGI: > 100 µM
K-562 leukemia
  GI50: 3.28 µM
  TGI: > 100 µM
A549 NSCLC
  GI50: 3.92 µM
  TGI: > 100 µM
IGROV1 ovarian
  GI50: 5.39 µM
  TGI: > 100 µM
TK-10 renal
  TGI: > 100 µM
T-47D breast
  GI50: 2.4 µM
  TGI: > 30.8 µM
SNB-19 CNS
  GI50: 5.32 µM
  TGI: > 100 µM
NCI-H522 lung
  GI50: 3.01 µM
  TGI: 14.9 µM
A498 renal
  GI50: 2.31 µM
  TGI: > 30.9 µM
HL-60(TB) leukemia
  GI50: 2.35 µM
  TGI: 12.3 µM
HOP-92 NSCLC
  GI50: 2.96 µM
  TGI: > 26 µM
NCI-H226 lung
  GI50: 2.62 µM
  TGI: 7.61 µM
ACHN renal
  GI50: 3.91 µM
  TGI: > 100 µM
SK-OV-3 ovarian
  GI50: 19.1 µM
  TGI: > 100 µM
HOP-62 NSCLC
  GI50: 4.45 µM
  TGI: 97.5 µM
NCI/ADR-RES ovarian
  GI50: 3.62 µM
  TGI: > 100 µM
UO-31 renal
  GI50: 2.27 µM
  TGI: 9.04 µM
SW-620 colon
  GI50: 4.41 µM
  TGI: > 100 µM
MCF7 breast
  GI50: 3.02 µM
  TGI: > 100 µM
HCT-15 colon
  GI50: 2.95 µM
  TGI: > 100 µM
EKVX NSCLC
  GI50: 3.39 µM
  TGI: > 100 µM
CAKI-1 renal
  GI50: 4.25 µM
  TGI: > 100 µM
SK-MEL-5 melanoma
  GI50: 1.46 µM
  TGI: 3.02 µM
786-0 renal
  GI50: 6.05 µM
  TGI: > 100 µM
SK-MEL-28 melanoma
  GI50: > 20.2 µM
  TGI: > 100 µM
MALME-3M melanoma
  GI50: 2.81 µM
  TGI: 16.9 µM
OVCAR-4 ovarian
  GI50: > 21.1 µM
  TGI: > 100 µM
BT-549 breast
  GI50: 3.05 µM
  TGI: 20.8 µM
DU-145 prostate
  GI50: 3.35 µM
  TGI: > 100 µM
HT29 colon
  GI50: 3.52 µM
  TGI: > 100 µM
COLO 205 colon
  TGI: > 100 µM
MDA-MB-231 breast
  GI50: 4.76 µM
  TGI: > 100 µM

## NCCOc1ncccc1/C=C1\c2ccccc2-c2ccc(F)cc21
HS 578T breast
  GI50: 1.74 µM
  TGI: 5.02 µM
RPMI-8226 leukemia
  GI50: 1.47 µM
  TGI: 3.51 µM
SR leukemia
  GI50: 0.116 µM
  TGI: 2.94 µM
SNB-75 CNS
  GI50: 1.1 µM
  TGI: 3.26 µM
SF-295 CNS
  GI50: 0.462 µM
  TGI: 1.81 µM
HCT-116 colon
  GI50: 0.703 µM
  TGI: 2.12 µM
UACC-62 melanoma
  GI50: 1.04 µM
  TGI: 2.38 µM
SF-539 CNS
  GI50: 1.49 µM
  TGI: 2.87 µM
NCI-H460 lung
  GI50: 0.236 µM
  TGI: 1.37 µM
NCI-H23 lung
  GI50: 0.631 µM
  TGI: 2.51 µM
SN12C renal
  GI50: 0.449 µM
  TGI: 1.71 µM
U251 CNS
  GI50: 0.525 µM
  TGI: 1.85 µM
MOLT-4 leukemia
  GI50: 0.282 µM
  TGI: 1.16 µM
LOX IMVI melanoma
  GI50: 0.598 µM
  TGI: 1.98 µM
OVCAR-5 ovarian
  GI50: 1.57 µM
  TGI: 3.07 µM
PC-3 prostate
  GI50: 1.18 µM
  TGI: 2.62 µM
UACC-257 melanoma
  GI50: 1.66 µM
  TGI: 3.34 µM
CCRF-CEM leukemia
  GI50: 0.316 µM
  TGI: 2.39 µM
SF-268 CNS
  GI50: 1.08 µM
  TGI: 4.1 µM
RXF 393 renal
  GI50: 1.6 µM
  TGI: 3.66 µM
OVCAR-8 ovarian
  GI50: 1.08 µM
  TGI: 2.75 µM
MDA-MB-435
  GI50: 1.55 µM
  TGI: 2.98 µM
SK-MEL-2 melanoma
  GI50: 1.91 µM
  TGI: 3.76 µM
OVCAR-3 ovarian
  GI50: 1.63 µM
  TGI: 3.11 µM
KM12 colon
  GI50: 1.46 µM
  TGI: 2.98 µM
M14 melanoma
  GI50: 0.739 µM
  TGI: 2.26 µM
HCC-2998 colon
  GI50: 1.34 µM
  TGI: 2.75 µM
K-562 leukemia
  GI50: 0.994 µM
  TGI: 3.39 µM
A549 NSCLC
  GI50: 0.311 µM
  TGI: 1.92 µM
IGROV1 ovarian
  GI50: 1.16 µM
  TGI: 2.47 µM
TK-10 renal
  GI50: 1.37 µM
  TGI: 2.85 µM
T-47D breast
  GI50: 0.687 µM
  TGI: 2.74 µM
SNB-19 CNS
  GI50: 0.57 µM
  TGI: 2.58 µM
NCI-H522 lung
  GI50: 1.13 µM
  TGI: 2.76 µM
A498 renal
  GI50: 1.61 µM
  TGI: 4.77 µM
HL-60(TB) leukemia
  GI50: 0.34 µM
  TGI: 1.3 µM
HOP-92 NSCLC
  GI50: 0.353 µM
  TGI: 3.19 µM
NCI-H226 lung
  GI50: 1 µM
  TGI: 2.53 µM
ACHN renal
  GI50: 0.349 µM
  TGI: 1.37 µM
SK-OV-3 ovarian
  GI50: 1.24 µM
  TGI: 2.91 µM
HOP-62 NSCLC
  GI50: 0.446 µM
  TGI: 1.87 µM
NCI/ADR-RES ovarian
  GI50: 1.24 µM
  TGI: 2.71 µM
UO-31 renal
  GI50: 1.12 µM
  TGI: 2.34 µM
SW-620 colon
  GI50: 0.682 µM
  TGI: 2.17 µM
MCF7 breast
  GI50: 0.379 µM
  TGI: 1.68 µM
HCT-15 colon
  GI50: 0.781 µM
  TGI: 2.32 µM
EKVX NSCLC
  GI50: 1.35 µM
  TGI: 3.55 µM
CAKI-1 renal
  GI50: 0.461 µM
  TGI: 2 µM
SK-MEL-5 melanoma
  GI50: 1.36 µM
  TGI: 2.68 µM
786-0 renal
  GI50: 0.575 µM
  TGI: 1.94 µM
SK-MEL-28 melanoma
  GI50: 1.62 µM
  TGI: 3.04 µM
MALME-3M melanoma
  GI50: 1.24 µM
  TGI: 2.64 µM
OVCAR-4 ovarian
  GI50: 1.52 µM
  TGI: 3.47 µM
BT-549 breast
  GI50: 1.64 µM
  TGI: 4.48 µM
DU-145 prostate
  GI50: 0.467 µM
  TGI: 1.89 µM
HT29 colon
  GI50: 1.19 µM
  TGI: 2.8 µM
COLO 205 colon
  GI50: 1.05 µM
  TGI: 2.31 µM
MDA-MB-231 breast
  GI50: 1.43 µM
  TGI: 2.94 µM
